Results taken from PubChem BioAssay AID1963423 (Molecular Pharmacology Branch, DTP, NCI, 2024).

Test system: 439559-082-T-J2-PDC complex spheroid growth
Assay: Anticancer human tumor 439559-082-T-J2-PDC patient-derived colon adenocarcinoma cell line growth inhibition [Asc]
Conditions: for IC50: curve of first compound; for viability, T/C: stronger effect = lower value
In short: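 Complex solid-tumor spheroids incorporating human endothelial and mesenchymal stem cells received single agents or combinations over half-log dilution ranges anchored to clinical Cmax.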

[1] = second compound 0.00316 µM, first compound 0.00316 µM
[2] = second compound 0.00316 µM, first compound 0.01 µM
[3] = second compound 0.00316 µM, first compound 0.0316 µM
[4] = second compound 0.00316 µM, first compound 0.1 µM
[5] = second compound 0.01 µM, first compound 0.00316 µM
[6] = second compound 0.01 µM, first compound 0.01 µM
[7] = second compound 0.01 µM, first compound 0.0316 µM
[8] = second compound 0.01 µM, first compound 0.1 µM
[9] = second compound 0.0316 µM, first compound 0.00316 µM
[10] = second compound 0.0316 µM, first compound 0.01 µM
[11] = second compound 0.0316 µM, first compound 0.0316 µM
[12] = second compound 0.0316 µM, first compound 0.1 µM
[13] = second compound 0.1 µM, first compound 0.00316 µM
[14] = second compound 0.1 µM, first compound 0.01 µM
[15] = second compound 0.1 µM, first compound 0.0316 µM
[16] = second compound 0.1 µM, first compound 0.1 µM
[17] = second compound 0.316 µM, first compound 0.00316 µM
[18] = second compound 0.316 µM, first compound 0.01 µM
[19] = second compound 0.316 µM, first compound 0.0316 µM
[20] = second compound 0.316 µM, first compound 0.1 µM
[21] = second compound 1 µM, first compound 0.00316 µM
[22] = second compound 1 µM, first compound 0.01 µM
[23] = second compound 1 µM, first compound 0.0316 µM
[24] = second compound 1 µM, first compound 0.1 µM
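Note: spheroids exposed to agents for 7 days starting day 3 after seeding.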
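Throughout, for viability, T/C: percent of DMSO vehicle control viability with 100% = vehicle.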

**Q.** With `COc1c(OCCCN2CCOCC2)ccc2c3n(c(=NC(=O)c4cnc(N)nc4)nc12)CCN3` + CNC(C)C(=O)NC1CN(S(=O)(=O)c2cccc(S(=O)(=O)N3CCC4CCC(C(=O)NC(c5ccccc5)c5ccccc5)N4C(=O)C(NC(=O)C(C)NC)C3)c2)CCC2CCC(C(=O)NC(c3ccccc3)c3ccccc3)N2C1=O as the compound, how does the IC50 (second compound 0.00316 µM) read?
**A.** Its IC50 is greater than 1 µM.

**Q.** And the IC50 (second compound 0.01 µM)?
**A.** Its IC50 is greater than 1 µM.

**Q.** What about the IC50 (second compound 0.0316 µM) of the same compound?
**A.** The IC50 was greater than 1 µM.

**Q.** And the IC50 (second compound 0.1 µM)?
**A.** The IC50 was greater than 1 µM.

**Q.** What about the IC50 (second compound 0.316 µM) of the same compound?
**A.** Its IC50 is greater than 1 µM.

**Q.** What about the IC50 (second compound 1 µM) of the same compound?
**A.** Its IC50 is 0.38 µM.

**Q.** What about the viability, T/C [1] of the same compound?
**A.** The viability, T/C was 100%.

**Q.** What about the viability, T/C [2] of the same compound?
**A.** Its viability, T/C is 95.2%.

**Q.** And the viability, T/C [3]?
**A.** The viability, T/C was 98.9%.

**Q.** What about the viability, T/C [4] of the same compound?
**A.** Its viability, T/C is 80.8%.

**Q.** And the viability, T/C (second compound 0.00316 µM, first compound 0.316 µM)?
**A.** Its viability, T/C is 72.6%.

**Q.** What about the viability, T/C (second compound 0.00316 µM, first compound 1 µM) of the same compound?
**A.** Its viability, T/C is 64.7%.

**Q.** What about the viability, T/C [5] of the same compound?
**A.** Its viability, T/C is 102%.

**Q.** And the viability, T/C [6]?
**A.** Its viability, T/C is 88.6%.

**Q.** What about the viability, T/C [7] of the same compound?
**A.** Its viability, T/C is 99.1%.

**Q.** And the viability, T/C [8]?
**A.** Its viability, T/C is 84.5%.

**Q.** And the viability, T/C (second compound 0.01 µM, first compound 0.316 µM)?
**A.** Its viability, T/C is 73.8%.

**Q.** What about the viability, T/C (second compound 0.01 µM, first compound 1 µM) of the same compound?
**A.** Its viability, T/C is 63.4%.

**Q.** And the viability, T/C [9]?
**A.** The viability, T/C was 93.2%.

**Q.** And the viability, T/C [10]?
**A.** Its viability, T/C is 98.8%.

**Q.** And the viability, T/C [11]?
**A.** Its viability, T/C is 92.5%.

**Q.** And the viability, T/C [12]?
**A.** Its viability, T/C is 77.4%.

**Q.** What about the viability, T/C (second compound 0.0316 µM, first compound 0.316 µM) of the same compound?
**A.** Its viability, T/C is 81.5%.

**Q.** And the viability, T/C (second compound 0.0316 µM, first compound 1 µM)?
**A.** The viability, T/C was 71.2%.

**Q.** What about the viability, T/C [13] of the same compound?
**A.** Its viability, T/C is 96.2%.

**Q.** What about the viability, T/C [14] of the same compound?
**A.** Its viability, T/C is 109%.

**Q.** What about the viability, T/C [15] of the same compound?
**A.** Its viability, T/C is 82.2%.

**Q.** And the viability, T/C [16]?
**A.** Its viability, T/C is 78.9%.

**Q.** What about the viability, T/C (second compound 0.1 µM, first compound 0.316 µM) of the same compound?
**A.** The viability, T/C was 70.5%.

**Q.** What about the viability, T/C (second compound 0.1 µM, first compound 1 µM) of the same compound?
**A.** The viability, T/C was 62.6%.

**Q.** And the viability, T/C [17]?
**A.** Its viability, T/C is 94.9%.

**Q.** And the viability, T/C [18]?
**A.** Its viability, T/C is 89%.

**Q.** What about the viability, T/C [19] of the same compound?
**A.** Its viability, T/C is 85.1%.

**Q.** And the viability, T/C [20]?
**A.** Its viability, T/C is 66.3%.

**Q.** And the viability, T/C (second compound 0.316 µM, first compound 0.316 µM)?
**A.** Its viability, T/C is 61.3%.

**Q.** What about the viability, T/C (second compound 0.316 µM, first compound 1 µM) of the same compound?
**A.** Its viability, T/C is 58.6%.

**Q.** What about the viability, T/C [21] of the same compound?
**A.** The viability, T/C was 80.8%.

**Q.** What about the viability, T/C [22] of the same compound?
**A.** Its viability, T/C is 74.5%.

**Q.** What about the viability, T/C [23] of the same compound?
**A.** Its viability, T/C is 65.6%.

**Q.** What about the viability, T/C [24] of the same compound?
**A.** The viability, T/C was 53.1%.

**Q.** And the viability, T/C (second compound 1 µM, first compound 0.316 µM)?
**A.** Its viability, T/C is 53.8%.

**Q.** And the viability, T/C (second compound 1 µM, first compound 1 µM)?
**A.** Its viability, T/C is 44.8%.

**Q.** `NC1CCC(NC2CC2c2ccccc2)CC1` (centres undefined) + CNC(C)C(=O)NC1CN(S(=O)(=O)c2cccc(S(=O)(=O)N3CCC4CCC(C(=O)NC(c5ccccc5)c5ccccc5)N4C(=O)C(NC(=O)C(C)NC)C3)c2)CCC2CCC(C(=O)NC(c3ccccc3)c3ccccc3)N2C1=O was tested. Which IC50 (second compound 0.00316 µM) did it give?
**A.** The IC50 was greater than 0.1 µM.

**Q.** What about the IC50 (second compound 0.01 µM) of the same compound?
**A.** The IC50 was greater than 0.1 µM.

**Q.** What about the IC50 (second compound 0.0316 µM) of the same compound?
**A.** Its IC50 is greater than 0.1 µM.

**Q.** What about the IC50 (second compound 0.1 µM) of the same compound?
**A.** Its IC50 is greater than 0.1 µM.

**Q.** What about the IC50 (second compound 0.316 µM) of the same compound?
**A.** The IC50 was greater than 0.1 µM.

**Q.** What about the IC50 (second compound 1 µM) of the same compound?
**A.** The IC50 was greater than 0.1 µM.

**Q.** What about the viability, T/C (second compound 0.00316 µM, first compound 0.000316 µM) of the same compound?
**A.** The viability, T/C was 104%.

**Q.** What about the viability, T/C (second compound 0.00316 µM, first compound 0.001 µM) of the same compound?
**A.** The viability, T/C was 100%.

**Q.** What about the viability, T/C [1] of the same compound?
**A.** The viability, T/C was 110%.

**Q.** What about the viability, T/C [2] of the same compound?
**A.** The viability, T/C was 95.7%.

**Q.** And the viability, T/C [3]?
**A.** The viability, T/C was 98.4%.

**Q.** What about the viability, T/C [4] of the same compound?
**A.** Its viability, T/C is 98.2%.

**Q.** And the viability, T/C (second compound 0.01 µM, first compound 0.000316 µM)?
**A.** The viability, T/C was 102%.

**Q.** And the viability, T/C (second compound 0.01 µM, first compound 0.001 µM)?
**A.** Its viability, T/C is 95%.

**Q.** What about the viability, T/C [5] of the same compound?
**A.** Its viability, T/C is 109%.

**Q.** What about the viability, T/C [6] of the same compound?
**A.** Its viability, T/C is 111%.

**Q.** What about the viability, T/C [7] of the same compound?
**A.** The viability, T/C was 99.5%.

**Q.** And the viability, T/C [8]?
**A.** The viability, T/C was 107%.

**Q.** What about the viability, T/C (second compound 0.0316 µM, first compound 0.000316 µM) of the same compound?
**A.** The viability, T/C was 107%.

**Q.** And the viability, T/C (second compound 0.0316 µM, first compound 0.001 µM)?
**A.** Its viability, T/C is 91.3%.

**Q.** And the viability, T/C [9]?
**A.** The viability, T/C was 101%.

**Q.** What about the viability, T/C [10] of the same compound?
**A.** Its viability, T/C is 109%.

**Q.** What about the viability, T/C [11] of the same compound?
**A.** Its viability, T/C is 104%.

**Q.** And the viability, T/C [12]?
**A.** The viability, T/C was 107%.

**Q.** And the viability, T/C (second compound 0.1 µM, first compound 0.000316 µM)?
**A.** Its viability, T/C is 105%.

**Q.** And the viability, T/C (second compound 0.1 µM, first compound 0.001 µM)?
**A.** Its viability, T/C is 101%.

**Q.** What about the viability, T/C [13] of the same compound?
**A.** The viability, T/C was 98.1%.

**Q.** And the viability, T/C [14]?
**A.** Its viability, T/C is 104%.

**Q.** And the viability, T/C [15]?
**A.** The viability, T/C was 96.4%.

**Q.** What about the viability, T/C [16] of the same compound?
**A.** Its viability, T/C is 98%.

**Q.** What about the viability, T/C (second compound 0.316 µM, first compound 0.000316 µM) of the same compound?
**A.** Its viability, T/C is 95.9%.

**Q.** And the viability, T/C (second compound 0.316 µM, first compound 0.001 µM)?
**A.** The viability, T/C was 101%.

**Q.** And the viability, T/C [17]?
**A.** The viability, T/C was 93.6%.

**Q.** And the viability, T/C [18]?
**A.** Its viability, T/C is 100%.

**Q.** And the viability, T/C [19]?
**A.** Its viability, T/C is 101%.

**Q.** What about the viability, T/C [20] of the same compound?
**A.** The viability, T/C was 97%.

**Q.** What about the viability, T/C (second compound 1 µM, first compound 0.000316 µM) of the same compound?
**A.** The viability, T/C was 85.5%.

**Q.** And the viability, T/C (second compound 1 µM, first compound 0.001 µM)?
**A.** Its viability, T/C is 85.9%.

**Q.** What about the viability, T/C [21] of the same compound?
**A.** Its viability, T/C is 87.4%.

**Q.** And the viability, T/C [22]?
**A.** The viability, T/C was 84.5%.

**Q.** What about the viability, T/C [23] of the same compound?
**A.** The viability, T/C was 86.3%.

**Q.** What about the viability, T/C [24] of the same compound?
**A.** Its viability, T/C is 77.3%.
